This note sets out measurements from patent publication US5114843A, “Humoral hypercalcemic factor antagonists” (Merck & Co., Inc., priority 1991, dated 1992).

The assay addresses T1, Bovine renal cortical plasma membranes (Bos taurus, UniProt Q1LZF7).
T1 construct: from tissue; host or cells: bovine renal cortex plasma membranes
T1 sequence (Q1LZF7 29-589): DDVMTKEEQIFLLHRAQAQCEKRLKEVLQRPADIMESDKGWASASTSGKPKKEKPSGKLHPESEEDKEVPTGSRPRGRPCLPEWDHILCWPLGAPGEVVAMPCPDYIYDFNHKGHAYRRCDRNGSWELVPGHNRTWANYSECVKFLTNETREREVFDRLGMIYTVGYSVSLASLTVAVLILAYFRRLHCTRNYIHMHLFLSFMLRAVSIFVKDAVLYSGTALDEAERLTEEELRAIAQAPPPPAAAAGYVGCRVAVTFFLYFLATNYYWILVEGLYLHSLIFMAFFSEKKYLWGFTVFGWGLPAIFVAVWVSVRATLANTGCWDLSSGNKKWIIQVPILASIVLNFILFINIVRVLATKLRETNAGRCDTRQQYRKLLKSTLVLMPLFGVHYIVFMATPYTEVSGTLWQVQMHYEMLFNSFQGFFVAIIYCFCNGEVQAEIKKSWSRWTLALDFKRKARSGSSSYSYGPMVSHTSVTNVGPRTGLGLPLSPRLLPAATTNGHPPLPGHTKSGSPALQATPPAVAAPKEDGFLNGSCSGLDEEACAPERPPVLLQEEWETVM
Put plainly: HCF binding (receptor) assay with [Nle8,18,(125I)-Tyr34]bPTH(1-34)NH2 radioligand. To be noted: radioligand [Nle8,18,(125I)-Tyr34]bPTH(1-34)NH2, 30 min at 21° C. The procedure: HCF analogues were analysed in a new receptor assay (Goldman et al., Endocrinol. (1988) 123: 1468-1475) which modified the assay reported in Rosenblatt et al., Endocrin. 107: 545-550 (1980). The binding assay used [Nle^8,18 (^125 I)-Tyr^34 ]bPTH (1-34)NH2 which was purified by HPLC (Novapak C18, 32-35% CH3 CN in 0.1% TFA) and was stored as aliquots in 25 mM TrisHCl/1%BSA at -70° C. Bovine renal cortical plasma membranes were incubated with radioligand (25,000 cpm) in the absence or presence of HCF analogues in a Tris-containing buffer (250 μl) for 30 min. at 21° C. Once equilibrium was reached, bound and free radioligand were separated by centrifugation.
High specific binding (85%) to bovine renal cortical membranes was obtained consistently.

Consider `CC[C@H](C)[C@H](NC(=O)[C@H](CC(C)C)NC(=O)[C@H](Cc1c[nH]cn1)NC(=O)[C@H](Cc1c[nH]cn1)NC(=O)[C@H](CC(C)C)NC(=O)[C@H](Cc1ccccc1)NC(=O)[C@H](Cc1ccccc1)NC(=O)[C@H](CCCNC(=N)N)NC(=O)[C@H](CCCNC(=N)N)NC(=O)[C@H](CCCNC(=N)N)NC(=O)[C@H](CC(C)C)NC(=O)[C@H](CC(=O)O)NC(=O)[C@H](CCC(N)=O)NC(=O)[C@@H](NC(=O)[C@@H](N)CO)[C@@H](C)CC)C(=O)N[C@@H](C)C(=O)N[C@@H](CCC(=O)O)C(=O)N[C@H](C(=O)N[C@@H](Cc1c[nH]cn1)C(=O)N[C@H](C(=O)N[C@@H](C)C(N)=O)[C@@H](C)O)[C@@H](C)CC` [hHCF(14-34)NH2], for which the Ki (usually a measure of affinity in units of concentration, obtained from inhibition or displacement) was determined as 1400 ± 83 nM.
